Target: γ-secretase (Homo sapiens, UniProt P49768)
Assay: Screening for γ-secretase-modulating activity in SKNBE2 cells carrying APP 695 wild type (assay of Citron et al 1997)
Type: cell-based
Settings: SKNBE2, @ 1 uM; SKNBE2 cells carrying the APP 695 wild type
Protocol: Screening was carried out using SKNBE2 cells carrying the APP 695—wild type, grown in DMEM/NUT-mix F12 (HAM) provided by Gibco (cat no. 31330-38) containing 5% Serum/Fe supplemented with 1% non-essential amino acids. Cells were grown to near confluency. The screening was performed using the assay as described in Citron et al (1997) Nature Medicine 3: 67.

| SMILES | inhibition at 1 µM [%] |
| --- | --- |
| CC(C)CC(C(=O)O)c1cc(-c2ccc(C(F)(F)F)cc2)cc(N2CCNCC2)c1 (stereo not shown) [Example 82, 4-Methyl-2-(5-piperazin-1-yl-4′-trifluoromethyl-biphenyl-3-yl)-pentanoic acid] | 5 |
| CC(C)CCCN1CCC(c2cc(-c3ccc(C(F)(F)F)cc3)cc(C(CC(C)C)C(=O)O)c2)CC1 (stereo not shown) [Example 77, 4-Methyl-2-{5-[1-(4-methyl-pentyl)-piperidin-4-yl]-4′-trifluoromethyl-biphenyl-3-yl}-pentanoic acid] | 36 |
| CC(C)CC(C(=O)O)c1cc(-c2ccc(C(F)(F)F)cc2)cc(N2CCN(c3cccc(C(F)(F)F)c3)CC2)c1 (stereo not shown) [Example 80, 4-Methyl-2-{4′-trifluoromethyl-5-[4-(3-trifluoromethyl-phenyl)-piperazin-1-yl]-biphenyl-3-yl}-pentanoic acid] | 35 |
| CC(C)CC(C(=O)O)c1cc(-c2ccc(C(F)(F)F)cc2)cc(N2CCCCC2C)c1 (stereo not shown) [Example 3, 4-Methyl-2-[5-(2-methyl-piperidin-1-yl)-4′-trifluoromethyl-biphenyl-3-yl]-pentanoic acid] | 23 |
| CC(C)CC(C(=O)O)c1cc(-c2ccc(C(F)(F)F)cc2)cc(C2CCN(Cc3cc(F)cc(F)c3)CC2)c1 (stereo not shown) [Example 75, 2-{5-[1-(3,5-Difluoro-benzyl)-piperidin-4-yl]-4′-trifluoromethyl-biphenyl-3-yl}-4-methyl-pentanoic acid] | 46 |
| CN1C(c2cc(CC(=O)O)cc(-c3ccc(C(F)(F)F)cc3)c2)CCCC1C(F)(F)F (stereo not shown) [Example 11, [5-(1-Methyl-6-trifluoromethyl-piperidin-2-yl)-4′-trifluoromethyl-biphenyl-3-yl]-acetic acid] | 23 |
| CC(C)/C=C/CN1CCC(c2cc(-c3ccc(C(F)(F)F)cc3)cc(C(CC(C)C)C(=O)O)c2)CC1 (stereo not shown) [Example 69, 4-Methyl-2-{5-[1-(4-methyl-pent-2-enyl)-piperidin-4-yl]-4′-trifluoromethyl-biphenyl-3-yl}-pentanoic acid] | 8 |
| CC(C)C[C@H](C(=O)O)c1cc(-c2ccc(C(F)(F)F)cc2)cc([C@H]2CCC[C@@H](C(F)(F)F)N2)c1 [Example 19, (S) 4-Methyl-2-[4′-trifluoromethyl-5-(6-trifluoromethyl-piperidin-2-yl)-biphenyl-3-yl]-pentanoic acid] | 48 |
| CC(C)CC(C(=O)O)c1cc(-c2ccc(C(F)(F)F)cc2)cc(C2CCCN(S(=O)(=O)c3cccc4cnccc34)C2)c1 (stereo not shown) [Example 41, 2-{5-[1-(Isoquinoline-5-sulfonyl)-piperidin-3-yl]-4′-trifluoromethyl-biphenyl-3-yl}-4-methyl-pentanoic acid] | 70 |
| CC(C)CCN1CCCC(c2cc(-c3ccc(C(F)(F)F)cc3)cc(C(CC(C)C)C(=O)O)c2)C1 (stereo not shown) [Example 62, 4-Methyl-2-{5-[1-(3-methyl-butyl)-piperidin-3-yl]-4′-trifluoromethyl-biphenyl-3-yl}-pentanoic acid] | 5 |
| CC(C)C[C@H](C(=O)O)c1cc(-c2ccc(C(F)(F)F)cc2)cc([C@H]2CC[C@@H](C(F)(F)F)NC2)c1 (single isomer, unassigned) [Example 36, 4-Methyl-2-[4′-trifluoromethyl-5-(6-trifluoromethyl-piperidin-3-yl)-biphenyl-3-yl]-pentanoic acid] | 40 |
| CC(C)CC(C(=O)O)c1cc(-c2ccc(C(F)(F)F)cc2)cc(C2CCC(C(F)(F)F)N(Cc3cccc(C(F)(F)F)c3)C2)c1 (stereo not shown) [Example 28, 4-Methyl-2-{4′-trifluoromethyl-5-[6-trifluoromethyl-1-(3-trifluoromethyl-benzyl)-piperidin-3-yl]-biphenyl-3-yl}-pentanoic acid] | 68 |
| Cc1ccccc1CC1CCCCN1c1cc(-c2ccc(C(F)(F)F)cc2)cc(C(CC(C)C)C(=O)O)c1 (stereo not shown) [Example 83, 4-Methyl-2-{5-[2-(2-methyl-benzyl)-piperidin-1-yl]-4′-trifluoromethyl-biphenyl-3-yl}-pentanoic acid] | 44 |
| CC(C)CC(C(=O)O)c1cc(-c2ccc(C(F)(F)F)cc2)cc(C2CCCN(Cc3cc(C(C)(C)C)cc(C(C)(C)C)c3)C2)c1 (stereo not shown) [Example 52, 2-{5-[1-(3,5-Di-tert-butyl-benzyl)-piperidin-3-yl]-4′-trifluoromethyl-biphenyl-3-yl}-4-methyl-pentanoic acid] | 58 |

Continued, values first:

| inhibition at 1 µM [%] | SMILES |
| --- | --- |
| 17 | CC(C)CC(C(=O)O)c1cc(-c2ccc(C(F)(F)F)cc2)cc(C2CCCN(Cc3ccc4nnn(C)c4c3)C2)c1 (stereo not shown) [Example 50, 4-Methyl-2-{5-[1-(3-methyl-3H-benzotriazol-5-ylmethyl)-piperidin-3-yl]-4′-trifluoromethyl-biphenyl-3-yl}-pentanoic acid] |
| 70 | CC(C)CC(C(=O)O)c1cc(-c2ccc(C(F)(F)F)cc2)cc(C2CCCN(S(=O)(=O)c3cccc(C(F)(F)F)c3)C2)c1 (stereo not shown) [Example 40, 4-Methyl-2-{4′-trifluoromethyl-5-[1-(3-trifluoromethyl-benzenesulfonyl)-piperidin-3-yl]-biphenyl-3-yl}-pentanoic acid] |
| 59 | CC(C)CC(C(=O)O)c1cc(-c2ccc(C(F)(F)F)cc2)cc(C2CCCN(Cc3ccc(Oc4ccc(F)cc4)cc3)C2)c1 (stereo not shown) [Example 48, 2-(5-{1-[4-(4-Fluoro-phenoxy)-benzyl]-piperidin-3-yl}-4′-trifluoromethyl-biphenyl-3-yl)-4-methyl-pentanoic acid] |
| 63 | CC(C)CC(C(=O)O)c1cc(-c2ccc(C(F)(F)F)cc2)cc(C2CCCN(S(=O)(=O)c3ccccc3C(F)(F)F)C2)c1 (stereo not shown) [Example 42, 4-Methyl-2-{4′-trifluoromethyl-5-[1-(2-trifluoromethyl-benzenesulfonyl)-piperidin-3-yl]-biphenyl-3-yl}-pentanoic acid] |
| 44 | CC(C)CC(C(=O)O)c1cc(-c2ccc(C(F)(F)F)cc2)cc(C2CCCN(C(C)c3ccc(C(F)(F)F)cc3)C2)c1 (single isomer, unassigned) [Example 63, (S*)-4-Methyl-2-(4′-trifluoromethyl-5-{1-[1-(4-trifluoromethyl-phenyl)-ethyl]-piperidin-3-yl}-biphenyl-3-yl)-pentanoic acid] |
| 61 | CC(C)CC(C(=O)O)c1cc(-c2ccc(C(F)(F)F)cc2)cc(C2CCCN(Cc3ccc(OC(F)(F)F)cc3)C2)c1 (stereo not shown) [Example 47, 4-Methyl-2-{5-[1-(4-trifluoromethoxy-benzyl)-piperidin-3-yl]-4′-trifluoromethyl-biphenyl-3-yl}-pentanoic acid] |
| 35 | CC(C)CC(C(=O)O)c1cc(-c2ccc(C(F)(F)F)cc2)cc(C2CCN(Cc3ccc(C(F)(F)F)cc3)CC2)c1 (stereo not shown) [Example 78, 4-Methyl-2-{4′-trifluoromethyl-5-[1-(4-trifluoromethyl-benzyl)-piperidin-4-yl]-biphenyl-3-yl}-pentanoic acid] |
| 49 | CC(C)CC(C(=O)O)c1cc(-c2ccc(C(F)(F)F)cc2)cc(C2CCCN(Cc3ccccc3)C2)c1 (stereo not shown) [Example 67, 2-[5-(1-Benzyl-piperidin-3-yl)-4′-trifluoromethyl-biphenyl-3-yl]-4-methyl-pentanoic acid] |
| 40 | CC(C)CC(C(=O)O)c1cc(-c2ccc(C(F)(F)F)cc2)cc(C2CCCN(c3ccccc3)C2)c1 (stereo not shown) [Example 58, 4-Methyl-2-[5-(1-phenyl-piperidin-3-yl)-4′-trifluoromethyl-biphenyl-3-yl]-pentanoic acid] |
| 75 | CC(C)CCC(c1ccc(C(F)(F)F)cc1)N1CCCC(c2cc(-c3ccc(C(F)(F)F)cc3)cc(C(CC(C)C)C(=O)O)c2)C1 (single isomer, unassigned) [Example 56, (R*) 4-Methyl-2-(5-{1-[4-methyl-1-(4-trifluoromethyl-phenyl)-pentyl]-piperidin-3-yl}-4′-trifluoromethyl-biphenyl-3-yl)-pentanoic acid] |
| 23 | CC(C)CC(C(=O)O)c1cc(-c2ccc(C(F)(F)F)cc2)cc(C2CCC(C(F)(F)F)N(Cc3ccncc3)C2)c1 (stereo not shown) [Example 25, 4-Methyl-2-[5-(1-pyridin-4-ylmethyl-6-trifluoromethyl-piperidin-3-yl)-4′-trifluoromethyl-biphenyl-3-yl]-pentanoic acid] |

Source: patent US8252935B2, “Piperidinyl and piperazinyl modulators of γ-secretase” (Janssen Pharmaceutica N.V., priority 2007, dated 2012)
